Data reported in ChEMBL document CHEMBL4130615, “Evaluation of Diarylheptanoid-Terpene Adduct Enantiomers from Alpinia officinarum for Neuroprotective Activities” (J Nat Prod, 2018).
Calls of active or inactive are those of the source. No cut-off for these calls is given here.

Experiments:
[1] = test system: Cortical neurone; assay: Neuroprotective activity against MPP+-induced cell death in Sprague-Dawley rat cortical neurons assessed as increase in cell viability at 4 to 32 uM pretreated for 12 hrs followed by MPP+ challenge measured after 20 hrs by MTT assay; assay type: functional, cell-based
[2] = test system: Cortical neurone; assay: Neuroprotective activity against MPP+-induced cell death in Sprague-Dawley rat cortical neurons assessed as increase in cell viability at 16 uM pretreated for 12 hrs followed by MPP+ challenge measured after 20 hrs by MTT assay; assay type: functional, cell-based

Row | SMILES | Activity [1] | Activity [2]
1 | COc1cc(CC[C@@H]2CC=C(CCC=C(C)C)C[C@H]2C(=O)CCc2ccccc2)ccc1O | inactive | –
2 | COc1cc(CC[C@H]2CC=C(CCC=C(C)C)C[C@@H]2C(=O)CCc2ccccc2)ccc1O | – | Active
3 | C=CC(=C)CCC=C(C)C | inactive | –
4 | COc1cc(CC/C=C/C(=O)CCc2ccccc2)ccc1O | inactive | –
